Assay results taken from US6663862B1, “Reagents for detection and purification of antibody fragments” (Duke University, priority 1999, dated 2003).
Numbering of substitutions follows the chain as printed. Marks after values point to notes of the source that are not given here.

Tested on: Fc fragment of human IgG
Assay: Binding of B1 mutants to human IgG Fc fragment (acrylodan fluorescence titration; competition assay for weak binders)
Conditions: for DDG = −RTIn (Kd wild type/Kd mutant): T = 298K, relative to Q32C wild-type construct; for Kd: hFc, Q32C background, 20 mM KPO4 (pH 6.0), 25° C., direct titration, or competition with labeled wild-type B1-hFc complex for weak binders; for fold increase in Kd: hFc binding, relative to wild-type (Q32C) B1
Source text: Fluorophore coupling and iodoacetamide blocking. All of the above mutations were constructed into the Q32C background to allow site-specific covalent coupling with acrylodan for fluorescent binding assays as described by Sloan, D. J. and Hellinca, H. W. (1998) Prot. Eng. 11:819-823. In competitive binding experiments between fluorescently labeled wild-type B1 and unlabeled mutants, the free thiol in the mutant protein was blocked by reaction with iodoacetamide.
Binding of B1 mutants to human IgG Fc fragment. The binding constants for each of the alanine mutants were measured as an increase in fluorescence by direct titration of Fc fragment of human IgG (ICN Biomedicals, Costa Mesa, Calif.) into a solution containing 250nM acrylodan-conjugated B1 domain mutant in 20 mM KPO4 (pH 6.0) at 25° C. (excitation 392 nm; emission 500 nm; slit widths of 4 and 16 nm respectively). After each addition of protein, the solution was allowed to equilibrate for 30 seconds before the final fluorescence value was recorded.
Each titration comprised 20 points and was performed in triplicate. The data were fit to a binding isotherm that described a single binding site and takes into account all of the species present (Segel, I. H. (1975) Enzyme Kinetics, John Wiley & Sons, New York, N.Y.): [formula]
where F is the measured fluorescence with FO and Fmax representing the initial and final values, respectively. [B1]t and [hFc]t are the concentrations of B1 and hFc respectively, and the Kd is the disassociation constant. This equation is referred to herein as “Equation 1”.
The binding constants of weak binders (greater than 50-fold increases in Kd) were measured in a competition assay with a pre-formed complex (250 nM) of wild type Q32C construct conjugated to acrylodan and hFc. Binding constants were determined by measuring the decrease in fluorescence of the complex by the addition of iodoacetamide blocked mutant B1 domains. From these competition binding curves the Kd for each of the mutant B1 domains was calculated from the binding isotherm (Fierke, C. A. et al. (1991) Biochemistry 30:11054-11063): [formula]
where F is the measured fluorescence with Fo and Ff representing the initial and final values respectively. [B1wt] and [B1mut] are the concentrations of B1 wild type and mutant respectively, and the Kd is the disassociation constant of the mutant or wild type. This Equation is referred to herein as “Equation 2”.
Binding studies. The interaction of the mutant B1 domain with the hFc was measured using a fluorescence method described by Sloan, D. J. and Hellinga, H. W. (1998) Prot. Eng. 11:819-823, which relies on the attachment of an environmentally sensitive fluorophore placed at the rim of the binding site in a location such that its fluorescence changes upon formation of the complex by virtue of alterations in conformational degrees of freedom and solvent accessibility, without adversely affecting the binding constant. Binding constants for hFc were determined in a direct titration experiment in which purified hFc was added to a solution of a Q32C B1 mutant to which the fluorophore acrylodan was covalently coupled at position 32C (FIG. 2A). The binding constants for all the B1 mutants were determined in the Q32C background (Table 4).
This approach was used to avoid having to use large quantities of pure hFc.

Substance	DDG = −RTIn (Kd wild type/Kd mutant)	Kd [µM]	fold increase in Kd [fold]
1: B1 domain of protein G with Q32C mutation and His tag; the wild-type construct relative to which all measurements are made [Example 1, reference compound]	0 kcal/mol	0.24	
2: B1 domain of protein G, T25A mutant in Q32C background [Example 2]	0.24 kcal/mol	0.36	
3: B1 domain of protein G, E27A mutant in Q32C background [Example 3]	>4.9^f kcal/mole	> 1000	> 4000
4: B1 domain of protein G, K28A mutant in Q32C background [Example 4]	1.3 kcal/mol	2	
5: B1 domain of protein G, K31A mutant in Q32C background [Example 5]	3.5 kcal/mol	85	350
6: B1 domain of protein G, N35A mutant in Q32C background [Example 6]	2.4 kcal/mol	13	50
7: B1 domain of protein G, D40A mutant in Q32C background [Example 7]	0.3 kcal/mol	0.38	
8: B1 domain of protein G, E42A mutant in Q32C background [Example 8]	0.4 kcal/mol	0.46	
9: B1 domain of protein G, W43A mutant in Q32C background [Example 9]	3.8 kcal/mol	140	580
10: B1 domain of protein G, T44/Y45A mutant in Q32C background [Example 10]	2.0 kcal/mol	6.5	
